The values below are quoted from earlier work in the CATMoS acute toxicity set (Mansouri et al. 2021).

SMILES strings stand for the structures.

A short description of the data set: rat acute oral toxicity. The settings on record: in vivo. An excerpt: […]The data set underlying the modeling effort for this project was initially compiled by NICEATM and U.S. EPA’s CCTE. Briefly, LD50 data were collected from rat acute oral systemic toxicity tests, including limit tests, ranges/confidence intervals, and discrete LD50 values. The full data set included 21,200 LD50 entries for 15,688 substances. […] Data were reviewed to ensure that LD50 values with obvious errors in the extracted data such as unit conversion errors (e.g., comma and decimal separator misplacements) were either fixed or removed. After this review, 16,209 LD50 values remained. Many of the chemicals represented had multiple LD50 entries, requiring that a single representative value per Chemical Abstracts Service Registry Number (CASRN) identifier be defined to facilitate modeling efforts. Based on ATWG feedback and to define the representative LD50 as a protective value while accounting for the distribution across multiple LD50s, the median of the lowest quartile was computed using only discrete LD50 values (omitting limit test data and range and confidence interval data). A detailed summary of the data compilation is available online on the NICEATM webpage dedicated to the collaborative modeling project (NTP 2020).
[…][…] For categorical designations, limit test and range/confidence interval LD50 data were integrated wherever possible. As such, the number of chemicals with end point values/calls varies across the modeling end points (Table 3) based on whether chemicals had representative LD50 values and/or other data. If a chemical had both, the representative value was used to determine categorical calls rather than limit test data. Some data were useable only for certain end points and categories depending on the thresholds. For example, ranges that spanned multiple hazard categories were considered only for the binary (very toxic/nontoxic) end points and omitted from rendering a determination for hazard category assignment.
[…]The final data set comprising 11,992 chemicals was split into training and evaluation sets […], respectively. This process was performed semirandomly by ordering chemicals based on the five end points (categorical and continuous LD50 values) and partitioning every fourth record into the evaluation set accordingly. This approach was taken to ensure an equivalent distribution of the LD50 values and the different hazard categories between the training and the evaluation sets without supervised sampling of the chemicals based on structures (Figure 1A). The sources of the chemical structures were also kept equivalent between the two sets, with chemical structures obtained from DSSTox, being the highest quality, representing over 75% of each set (Figure 1B).
Regarding `NNC(=O)CSc1cc(Oc2ccc(F)cc2)ncn1`, the LD50 – broadly, the dose at which mortality reaches 50% – was 400 mg/kg.
For `Nc1c2c(nc3ccccc13)CCCC2O` (centres undefined), the LD50 is 176 mg/kg.
As to `CN(C)C(=O)C(CCN1CCC(O)(c2ccc(Cl)c(C(F)(F)F)c2)CC1)(c1ccccc1)c1ccccc1`, the LD50 was 86 mg/kg.
`O=C1CCCN1CCO`: the LD50 is 14400 mg/kg.
Take `OC1(c2ccc(Cl)cc2)c2ccccc2C2=NCCN21` (centres undefined): the LD50 is 36.3 mg/kg.
As to `O=C(CCc1ccccc1)OC1=C(OC(=O)CCc2ccccc2)C(=O)OC1=O`, the LD50 is 10000 mg/kg.
For `CCCCSc1ccc(C(SCCN(C)C)c2ccccc2)cc1` (centres undefined), the median lethal dose (LD50) was 3800 mg/kg.
Take `CNC(=O)Oc1ccc(NC(=O)OC)c(C(C)C)c1`: the median lethal dose (LD50) was 27 mg/kg.
For the compound `C=C(C#N)OC(C)=O`, the 50% lethal dose (LD50) was 100 mg/kg.
Regarding `CCCCC1C(=O)NN(c2ccccc2)C1=O` (centres undefined), the LD50 is 1750 mg/kg.
As for `CCCCCCCCn1sccc1=O`, the LD50 was 550 mg/kg.
Regarding `COCN(C)N=O`, the LD50 is 700 mg/kg.
On to `COc1ccccc1`, for which the LD50 was 3700 mg/kg.
On to `Cc1ccc(CO)cc1`, for which the LD50 is 3900 mg/kg.
`CCCCCCCCCCNCCCCCCCC`: the LD50 was 2400 mg/kg.
Regarding `NC[C@H]1CC[C@H](C(=O)Oc2ccc(CCC(=O)O)cc2)CC1`, the LD50 is 1500 mg/kg.
Take `c1ccc(C2CCCCC2)c(OCCC2=NCCN2)c1`: the LD50 was 9.2 mg/kg.
Take `Cc1cn[nH]c1`: the LD50 is 534 mg/kg.
Turning to `O=c1[nH]c(=O)c2ccccc2o1`, the 50% lethal dose (LD50) was 750 mg/kg.
On to `O=C1c2ccccc2C(=O)C1C(=O)C(c1ccccc1)c1ccccc1`, for which the LD50 was 1.5 mg/kg.
Take `CCCc1ccccc1`: the 50% lethal dose (LD50) was 6040 mg/kg.
Take `CC(C)=NNC(=O)CSc1cc(Oc2ccc(C)cc2)ncn1`: the LD50 was 900 mg/kg.
Consider `CN(C)CCn1c2ccccc2c(=O)c2c([N+](=O)[O-])cccc21`, for which the LD50 was 41 mg/kg.
On to `Cc1ccc(N)c(S(=O)(=O)O)c1`, for which the median lethal dose (LD50) is 11700 mg/kg.
On to `CCOc1ccc(C(CN(C)C)C(C)CC)cc1Cl` (centres undefined), for which the LD50 is 451 mg/kg.
Take `CSP(=O)(SC)SC`: the LD50 was 30 mg/kg.
As to `O=S1c2ccccc2N(CCCN2CCN(CCO)CC2)c2cc(Cl)ccc21` (centres undefined), the median lethal dose (LD50) was 1000 mg/kg.
Turning to `CNC(=O)CSP(O)(=S)OC` (centres undefined), the LD50 was 1500 mg/kg.
Regarding `CCCCCCCCCCCCCCN(CC)C(C)(CO)CO`, the LD50 was 1500 mg/kg.
For `O=c1[nH]c2ccccc2n1CCCN1CCN(C(c2ccccc2)c2ccccc2)CC1`, the LD50 was 1410 mg/kg.
On to `CC(=O)OC(c1ccccc1)C(Cl)(Cl)Cl` (centres undefined), for which the LD50 is 6800 mg/kg.
Turning to `CC(C)(C)C(=O)CCc1ccc(Cl)cc1`, the LD50 was 3140 mg/kg.
With `CCCCC(C=CC(C)=O)CC` (centres undefined), the LD50 is 8120 mg/kg.
`COC1OC(CNC(=O)N(CCCl)N=O)C(O)C(O)C1O` (centres undefined): the LD50 was 46.4 mg/kg.
Turning to `CNc1c2c(nn1C)CCCC2`, the LD50 was 1850 mg/kg.
On to `CC(C)CCO`, for which the LD50 was 1300 mg/kg.
Take `COC(=O)C(C)N(C(=O)c1ccccc1)c1ccc(F)c(Cl)c1` (centres undefined): the LD50 is 1200 mg/kg.
Regarding `O=C(O)C1CCc2cc(C3CCCCC3)c(O)cc21` (centres undefined), the LD50 was 450 mg/kg.
As to `OCCOCCN1CCN(C(c2ccccc2)c2ccccc2)CC1`, the LD50 is 840 mg/kg.
As for `NC1=NCC(c2ccccc2)O1` (centres undefined), the LD50 was 25 mg/kg.
For `CC(=O)OC1CCC(N2CCCCC2)CC1` (centres undefined), the LD50 was 1950 mg/kg.
As for `COCNC(=O)CSP(=S)(OC)OC`, the LD50 is 600 mg/kg.
Consider `CCC(Br)(CC)C(=O)OCC(Br)(Br)Br`, for which the LD50 is 2500 mg/kg.
For the compound `CNC(=O)Oc1ccccc1C1CCCC1`, the LD50 was 187 mg/kg.
`COP(=O)(OC)OC(=CCl)c1cc(Cl)c(Cl)cc1Cl`: the LD50 was 4000 mg/kg.
As to `COC(C=Cc1ccccc1)OC`, the 50% lethal dose (LD50) is 3700 mg/kg.
With `COS(=O)(=O)c1ccccc1`, the median lethal dose (LD50) was 740 mg/kg.
As for `COc1c(C)ccc(C)c1N(COC(C)C)C(=O)CCl`, the 50% lethal dose (LD50) was 1730 mg/kg.
Take `CCN1CN(CC)CN(CC)C1`: the median lethal dose (LD50) was 316 mg/kg.
Consider `C[Si](Cl)(Cl)CCCC#N`, for which the LD50 was 650 mg/kg.
In the case of `COC(=O)CCC(Br)C(C)=O` (centres undefined), the LD50 was 600 mg/kg.
Take `OCC(Cl)C(Cl)CO` (centres undefined): the LD50 is 2830 mg/kg.
In the case of `COC(=O)[C@H](C)N(OC)c1c(C)cccc1C`, the median lethal dose (LD50) is 566 mg/kg.
On to `Cl[Si](Cl)(Cl)C1CC=CCC1` (centres undefined), for which the LD50 is 2830 mg/kg.
As for `CCN(CC)CCOc1ccc2nc(N(C)C)sc2c1`, the LD50 is 880 mg/kg.
As to `Cc1cc(=O)[nH]o1`, the LD50 was 3110 mg/kg.
As for `CCCCCCOCCO`, the LD50 is 830 mg/kg.
For `CCc1ccc2c(c1)C(=O)c1ccccc1C2=O`, the LD50 is 2800 mg/kg.
For the compound `O=C(O)CCCCCC(=O)O`, the median lethal dose (LD50) was 7000 mg/kg.
As for `CN(C)c1ccc(N=Nc2cccc(C(=O)O)c2)cc1`, the LD50 is 3760 mg/kg.
For the compound `N=C(N)NN=C1C=CC(=NNC(N)=S)C=C1`, the LD50 is 750 mg/kg.
With `C[Si](C)(C)N=C=N[Si](C)(C)C`, the median lethal dose (LD50) was 1730 mg/kg.
As for `CCSC(=O)NCCCN(C)C`, the LD50 was 1300 mg/kg.
For the compound `CN1C(=O)C2C3C=C(C(O)(c4ccccc4)c4ccccn4)C(C3=C(c3ccccc3)c3ccccn3)C2C1=O` (centres undefined), the LD50 was 12 mg/kg.
As for `O=C(O)Cc1csc(-c2ccc(Cl)cc2)n1`, the LD50 is 850 mg/kg.
As for `COC(=O)C=Cc1ccccc1`, the median lethal dose (LD50) was 2610 mg/kg.
Turning to `COc1ccc(Cl)cc1N/C(=N/C1CCCCC1)c1ccccc1`, the LD50 was 625 mg/kg.
Regarding `COC(=O)C(C(=O)Cc1c(C)n(C(=O)c2ccc(Cl)cc2)c2ccc(OC)cc12)C(=O)OC`, the LD50 is 208 mg/kg.
As to `O=C(CN1CCCCC1)N1CCOc2ccccc21`, the LD50 is 200 mg/kg.
Regarding `CCCOC(=O)COc1cccc(C(C)(C)C)c1`, the LD50 is 1800 mg/kg.
As for `NC(N)=NCC=Cc1ccccc1`, the median lethal dose (LD50) is 456 mg/kg.
With `C=CCC(N)Cc1ccccc1` (centres undefined), the LD50 is 680 mg/kg.
With `CCC(=O)O[C@]1(c2ccccc2)CCN(C)C[C@@H]1C`, the LD50 was 90 mg/kg.
Turning to `CNCCCC12CC(c3ccccc31)c1ccccc12`, the LD50 was 1320 mg/kg.
For `OC(c1ccccc1)(c1ccccc1)C1CCNCC1`, the LD50 is 984 mg/kg.
For `CN(C)P1(=S)OCc2cc([N+](=O)[O-])ccc2O1` (centres undefined), the median lethal dose (LD50) was 125 mg/kg.
`COC(=O)c1cc([N+](=O)[O-])ccc1Cl`: the median lethal dose (LD50) was 5360 mg/kg.
For the compound `NCCNCCNCCO`, the LD50 is 4630 mg/kg.
In the case of `CC[Si](OC(C)=O)(OC(C)=O)OC(C)=O`, the LD50 is 1460 mg/kg.
Consider `BrCC(Br)C1CCC(Br)C(Br)C1` (centres undefined), for which the LD50 is 3220 mg/kg.
Regarding `CCCCc1c(C)nc(N(C)C)nc1O`, the median lethal dose (LD50) is 2350 mg/kg.
On to `CCCCOCCOCCOCCOCCOCCCC`, for which the LD50 is 6500 mg/kg.
Regarding `NC(=O)Cc1c([O-])on[n+]1Cc1ccccc1`, the LD50 was 4450 mg/kg.
As for `CCOP(=S)(OCC)SC1COCCS1` (centres undefined), the 50% lethal dose (LD50) is 3 mg/kg.
Regarding `CCC=C(C)C=O`, the median lethal dose (LD50) was 4290 mg/kg.
As for `c1cc(OCC2CO2)ccc1CC1CO1` (centres undefined), the median lethal dose (LD50) was 4290 mg/kg.
On to `C=COCCSCC`, for which the LD50 is 4920 mg/kg.
In the case of `CC(=O)C=CC1C(C)C=C(C)CC1C` (centres undefined), the LD50 is 5200 mg/kg.
For `Ic1ccc(Nc2nnc(CCN3c4ccccc4Sc4ccccc43)s2)cc1`, the LD50 was 3100 mg/kg.
Turning to `O=C(NNCc1ccccc1)c1ccccn1`, the LD50 was 240 mg/kg.
`CCOCCC(=O)O`: the LD50 is 4800 mg/kg.
For the compound `CN(C)CC(=O)N1Cc2ccccc2CC2CCCCC21` (centres undefined), the LD50 was 1400 mg/kg.
As to `CC(C)NC(=O)N1CC(=O)N(c2cc(Cl)cc(Cl)c2)C1=O`, the LD50 was 3500 mg/kg.
For the compound `OC(CN1CCCCC1)c1cc(-c2ccccc2)on1` (centres undefined), the LD50 was 1980 mg/kg.
